Measurements as given in patent US20030013658A1, “Small peptides and methods for treatment of asthma and inflammation” (Hisatek, LLC, priority 1997, published 2003).

What was measured:
Type in all cases: in vivo
[1] = test system: mast cell degranulation induced by Compound 48/80; assay: Rat skin model: inhibition of Compound 48/80-induced mast cell degranulation (capillary permeability, trypan blue); details: 0.15 μg Compound 48/80; for % Degranulation: percent mast cell degranulation produced by 48/80, 100 nanomoles peptide
Procedure: The Rat Skin Model for Determination of Inhibition of Mast Cell Degranulation
In this model, the blood plasma of the experimental rat is labeled with the dye trypan blue. This soluble dye is carried in the bloodstream as a passive marker of plasma itself, and is excluded from live cells. Intact blood vessels, including the capillary system, retain this dye under normal circumstances. A compound, which induces degranulation of mast cells (resulting in leukotriene and histamine release), is injected into the skin to simulate allergen-induced degranulation. In these experiments, Compound 48/80 was used for this purpose. In the events following leukotriene and histamine release, capillary permeability is increased, and plasma, dyed blue, leaks from capillaries and dyes the skin surrounding the injection site blue. The area of bluing is a measure of the amount of Compound 48/80 injected.
A compound can be tested for “anti-leukotriene” and/or “anti-histamine” activity by mixing it with Compound 48/80 prior to injection.
The rat skin model was undertaken and validated. Various peptides were tested at a predetermined dose for anti-leukotriene and/or anti-histamine activity. The dose selected allowed a general comparison to f-Met-Leu-Phe, which was standard compound for comparison.
A “dose response” titration was performed for some compounds and compared with the standard compound. Observing serial decreases in the size areas of capillary permeability using serially smaller doses of the putative inhibitory compound validates the inhibition of leukotriene and/or histamine release observed in the initial predetermined dose test.
Reagents were obtained from Sigma or Aldrich, with the exception of ketamine, a veterinary anaesthetic that was obtained from various veterinary suppliers. The rats used were male Sprague-Dawley breed, 220-240 g at time of purchase from B&K International.
For the rat skin reaction, rats were anaesthetized with 0.25 ml 10 mg/ml ketamine. 1.0 ml trypan blue in saline (sterile filtered) was administered in a tail vein, and the back of the rat was shaved. Four intradermal injection sites per rat were used for test and control injections.
Compound 48/80 was prepared as a 1.5 mg/ml stock solution in saline. […] Serial dilutions in saline to working levels were prepared just prior to injection of each rat.
Peptides were prepared as a 23 mM stock solution in DMSO, and stored at −20° C. between experiments. At the time of use, the frozen stock solutions were thawed, and appropriate aliquots added to dilutions of Compound 48/80, along with appropriate amounts of DMSO, to result in the ratio of 5 μl DMSO to 0.1 ml aqueous Compound 48/80.
For injections, 0.1 ml […], +1/− test compounds were injected intradermally into anaesthetized, dyed, and shaved rats. Following a 15 minute incubation, the rats were sacrificed by cervical dislocation and the back skin was evulsed and placed on a light box. An image of the backlit skin was digitized using a CCD video capture camera and compatible hardware/software. The digitized image was analyzed using a scientific graphics analysis software package, and the areas of capillary permeability (bluing) were integrated and digital values were obtained for further analysis.
A dose response curve was generated using Compound 48/80 at various doses from ca. 0.01 μg through ca. 15 μg. […] A dose of 0.15 μg of Compound 48/80 was selected for conducting further tests.
Several f-Met-Leu peptides were tested for inhibition of induced degranulation in the rat skin model using 100 nanomoles of the test peptide and a dose of 0.15 μg Compound 48/80. An intrinsic zero-peptide-dose 48/80 control was included in each rat for each experiment, and the % of inhibition was expressed in relative terms to this control (0% inhibition). The percent mast cell degranulation produced by 48/80 was also determined.

[2] = test system: OVA-sensitized/challenged mice; assay: OVA-induced bronchial asthma mouse model (Standard/Resolution protocols, 1-3 month), airway eosinophils and mucus plugs
Description: The OVA-induced Bronchial Asthma Mouse Model for Inhibition of Mast Cell Degranulation
Reagents: Crystalline OVA was obtained from Pierce Chem. Co. (Rockford, Ill.) aluminum potassium sulfate (alum) from Sigma Chem. Co. (St. Louis, Mo.), pyrogen-free distilled water from Baxter, Healthcare Corporation (Deerfield, Ill.), 0.9% sodium chloride (normal saline) from Lymphomed (Deerfield, Ill.) and Trappsol™ HPB-L100 (aqueous hydroxypropyl beta cyclodextrin; 45 wt/vol % aqueous solution) from Cyclodextrin Technologies Development, Inc. (Gainesville, Fla.). The OVA (500 μg/ml in normal saline) was mixed with equal volumes of 10% (wt/vol) alum in distilled water. The mixture (pH 6.5 using 10 N NaOH) after incubation for 60 minutes at room temperature underwent centrifugation at 750 g for 5 minutes; the pellet was resuspended to the original volume in distilled water and used within one hour.
The selective 5-lipoxtgenase inhibitor, Zileuton (N-[1-benzo[b]thien-2-ylethyl]-N-hydroxyurea; J. Pharmacol Exp Ther. 1991; 256: 929-937), was kindly provided by Drs. Bell and George W. Carter (Abbott Laboratories, Abbott Part, Ill.). Zileuton was dissolved in Trappsol.™. Histatek, Inc. (Seattle, Wash.) provided the mast cell degranulation inhibitor, f-Met-Leu-Phe-Phe (“HK-X”).
Female BALB/c […] (6-8 wk of age at purchase; D and K, Seattle Wash.) were housed under conventional conditions for the studies.
Allergen Immunization/Challenge Protocols: Mice received an i.p. injection of 0.2 ml (100 μg) of OVA with alum on the different protocols of Standard (FIG. 5A) and Resolution (FIG. 5B) (J. Exp Med. 1996; 184: 1483-1494). According to the different protocols, mice were anesthetized with 0.2 ml i.p. of ketamine (0.44 mg/ml)/xylazine (6.3 mg/ml) in normal saline before receiving an intranasal (i.n.) does of 100 μg OVA in 0.05 ml normal saline and an i.n. dose of 50 μg OVA in 0.05 ml normal saline separately on different days. Two control groups were used. Accordingly, the first group received normal saline with alum i.p. and normal saline without alum i.n.; the second group received OVA with alum i.p., OVA without alum i.n., and normal saline, alone.
The trachea and left lung (the right lung is used for bronchoalveolar lavage (“BAL”)) were obtained and fixed in 10% neutral formaldehyde solution at room temperature for 6˜15 h. After being embedded in paraffin, the tissues were cut into 5-um sections and processed with the different staining or immunolabling further. Discombe's eosinophil staining was used for counting the cell numbers with the counterstain of methylene blue. The eosinophil number per unit airway area (2,200 μm^2) was determined by morphometry (J. Pathol. 1992; 166: 395-404; Am Rev Respir Dis. 1993; 147:448-456). Fibrosis was identified with the Masson's trichrome staining. Airway mucus was identified by the following staining method: methylene blue, hematoxylin and eosin, mucicarmine, alcian blue, and alcian blue/periodic acid-Schiff (PAS) reaction (Troyer, H., “Carbohydrates” in Principles and Techniques of Histochemistry, Little, Brown and Company, Boston, Mass., 1980: 89-121; Sheehan, D. C., et al., “Carbohydrates” in Theory and Practice of Histotechnology, Battle Press, Columbus, Ohio, 1980: 159-179) Mucin was stained with mucicarmine solution; metanil yellow counterstain was employed. Acidic mucin and sulfated mucosubstances were stained with alcian blue, pH 2.5; nuclear fast red counterstain was used. Neutral and acidic mucosubstances were identified by alcian blue, pH 2.5, and PAS reaction. The degree of mucus plugging of the airways (0.5-0.8 mm in diameter) was also assessed by morphometry. The percent occlusion of airway diameter by mucus was classified on a semiquantitative scale from 0 to 4+ as described in Figure Legends. The histologic and morphometric analyses were performed by individuals blinded to the protocol design. […]

[3] = test system: OVA-sensitized/challenged mice; assay: OVA allergen-induced airway inflammation mouse model, 28-day protocol, HK-X i.n. before each challenge; details: p<0.004; FIG. 11
Description: The above-described murine model reproduces key features of human asthma. Late-phase allergen-specific pulmonary disease was induced in normal BALB/c mice using ovalbumin (OVA) as allergen. One protocol includes immunization of mice with i.p. OVA on […] and 14, and intranasal (i.n.) administration of OVA on days 14, 25, 26, and 27.
In a mouse model of allergen-induced airway inflammation, the role of mast cell in airway eosinophil infiltration, mucus release, and hyper-responsiveness to methacholine was examined.
Materials were used as described above. Mice received an i.p. injection of 0.2 ml (100 ug) of OVA complexed with aluminum potassium sulfate (alum) on day 0 and 14. On days 14, 25, 26, and 27, mice were anesthetized with 0.2 ml i.p. of ketamine (0.44 mg/ml)/xylazine (6.3 mg/ml) in normal saline before receiving an intranasal (i.n.) dose of 100 ug OVA in 0.05 ml normal saline on days 25, 26, and 27. Lung tissue was obtained 24 hours after the last i.n. challenge on day 28. The control group received normal saline with alum i.p. on days 0 and 14 and normal saline without alum i.n. on days 14, 25, 26, and 27. To assess the effect of HK-X inhibition on OVA induced asthma, HK-X (10 ug/ml) was given i.n. 30 minutes before each i.n challenge on days 25, 26, and 27.
After tying off the left lung at the mainstem bronchus, the right lung was […] three times with 0.4 ml of normal saline, Bronchoalveolar lavage (BAL) fluid cells from a 0.05 ml aliquot of the pooled sample were counted using a hemocytometer and the remaining fluid centrifuged at 4° C. for 10 minutes at 200 g. After resuspension of the cell pellet in normal saline containing 10% BSA, BAL cell smears were made on glass slides. To stain eosinophils, dried slides were stained with Discombe's diluting fluid (0.05% aqueous eosin and 5% (v/v) acetone in distilled water) for 5-8 minutes, rinsed with water for 0.5 minutes and counterstained with 0.07 methylene blue for 2 minutes.
Following BAL, the trachea and left lung (upper and lower lobes) were obtained and fixed in 10% buffered formalin solution at 20° C. for1S hours. After the tissues were processed and embeded in paraffin, the tissues were cut into 5 μm sections and stained with Discombe's solution and counterstained with methylene blue as described above or stained with Hematoxylin and eosin. The eosinophil number per unit airway area (2200 μm^2) was determined by morphometry as previously described. Airway mucus was identified by a variety of staining methods, i.e., methylene blue, Hematoxylin and eosin, mucicarmine, toluidine blue, alcian blue, and alcian blue/periodic acid Schiff (PAS) reaction. Mucin was stained with mucicarmine solution; metanil yellow counterstain was employed. Mucin and sialic acid-rich non-sulfated mucosubstances were stained metachromatically with toluidine blue, pH 4.5. Acidic mucin and sulfated mucosubstances were stained with alcian blue, pH 2.5; nuclear fast red counterstain was used. Neutral and acidic mucosubstances were identified by alcian blue, pH 2.5 and PAS reaction. The degree of mucus plugging of the airways (0.5˜0.8 mm in diameter) also was assessed by morphometry. The percent occlusion of airway diameter by mucus was classified on a semiquantitative scale from 0 to +++++. The histologic and morphometric analyses protocol design were performed by individuals blinded to the protocol design.
Mucus glycoproteins in BAL fluid were assayed by slot blotting and PAS staining as described. Nitrocellulose membranes (0.2 um pore size; Schleicher & Schuell, Keene, N.H.) were wetted in distilled water and then in normal saline before placement in a Minifold II 72-well slot blot apparatus (Schleicher & Schuell). The BAL fluid samples (0.05 ml) and aliquots (0.05-0.75 ml) of a stock solution (2 ug/ml) of human respiratory mucin glycoprotein were blotted onto the nitrocellulose membranes by water suction vacuum, and mucus glycoproteins were visualized by PAS reaction. […]

[4] = test system: OVA-sensitized/challenged mice; assay: as above; details: p=0.0128 compared to OVA without zileuton; data not shown

N-acetyl-Met-Leu-Phe [Example 3]
% Degranulation [1]: 98%

CC(c1cc2ccccc2s1)N(O)C(N)=O (stereo not shown) [Zileuton, N-[1-benzo[b]thien-2-ylethyl]-N-hydroxyurea, reference compound]
AIRWAY INFLUX OF EOSINOPHILS (%) ([2]; 1 month): 15.50% | AIRWAY INFLUX OF EOSINOPHILS (%) ([2]; 2 month): 11.66% | AIRWAY INFLUX OF EOSINOPHILS (%) ([2]; 3 month): 10.73% | % of plug of airway ([2]; 28 days): 16% | PERCENTAGE OF EOSINOPHILS IN AIRWAY TISSUE ([2]; 28 days of treatment): 15.8% | MUCUS PLUG SCORE IN AIRWAYS ([2]; 28 days, semiquantitative scale 0 to 4+): 1.3 | reduction of airway eosinophils ([2]; through 1-3 month): could reduced eosinophils generally through 1-3 month | decrease in number of eosinophils in the BAL fluid [3]: 82% | decrease in eosinophils recovered in the BAL fluid [4]: 89%

f-Met-Leu-Tyr [Example 10]
% Degranulation [1]: 30%

f-Met-Leu-Phe [Example 2, reference compound]
dose response, inhibition of degranulation induced by Compound 48/80 ([1]; doses of 0 to about 230 nM peptide, FIG. 2 / FIG. 3): Inhibition of degranulation induced by Compound 48/80 was clearly shown | % Degranulation [1]: 60%
